The text below walks through data of patent publication US8207330B2, “Two-photon absorption material and application thereof” (Ricoh Company, Ltd., priority 2008, dated 2012).

A short description of one data set: Two-photon absorption cross-sectional area, Z scan method, Examples C. It counts as physicochemical. As to conditions: tetrahydrofuran solution, wavelength 800 nm. As to the method: Compound 1-7 (porphyrin derivative) of the present invention was dissolved in tetrahydrofuran, and the resultant tetrahydrofuran solution was measured for its two-photon absorption cross-sectional area according to the below-described evaluation method therefor.
The following Comparative Compound 1 was dissolved in tetrahydrofuran, and the resultant tetrahydrofuran solution was measured for its two-photon absorption cross-sectional area according to the below-described evaluation method therefor.
The following Comparative Compound 2, having a typical porphyrin structure, was dissolved in tetrahydrofuran, and the resultant tetrahydrofuran solution was measured for its two-photon absorption cross-sectional area in a similar manner.
The following Comparative Compound 3, having a conventional, typical diazaporphyrin structure, was dissolved in tetrahydrofuran, and the resultant tetrahydrofuran solution was measured for its two-photon absorption cross-sectional area.
[drawing 71] [Method for Measuring Two-Photon Absorption Cross-Sectional Area] […]
A quartz cell filled with each sample solution was placed in a light path through which a focused laser beam was passed. […] The sample solution was measured for its transmittance, and the thus-obtained value and the following theoretical equation (I) were used to determine a nonlinear absorption coefficient of the sample. […]
As to `COc1ccc(-c2cc(C3=C(c4cc(-c5ccc(OC)cc5)sc4OC)C(F)(F)C(F)(F)C3(F)F)c(OC)s2)cc1` [Comp. Ex. C-1], the “Two-photon absorption cross-sectional area” value stood at 15 GM.

A short description of another data set: Two-photon absorption cross-sectional area, Z scan method, Examples A (800 nm). It counts as physicochemical. As to conditions: tetrahydrofuran solution, femtosecond titanium sapphire laser. The protocol:
Each of the above-given compounds Nos. 1, 2, 4, 5, 6, 7, 10, 11, 15, 16, 17, 20, 24, 25, 27 and 28 of the present invention was dissolved in tetrahydrofuran, and the resultant solution was measured for its two-photon absorption cross-sectional area according to the below-described evaluation method therefor.
The following compound (29) was dissolved in tetrahydrofuran, and the resultant solution was measured for its two-photon absorption cross-sectional area according to the below-described evaluation method therefor.
The following compound (30) was dissolved in tetrahydrofuran, and the resultant solution was measured for its two-photon absorption cross-sectional area according to the below-described evaluation method therefor.
[drawing 66] [Method for Measuring Two-Photon Absorption Cross-Sectional Area]
(§1) FIG. 8 schematically illustrates a system of the method.
(§2) Measuring light source: femtosecond titanium sapphire laser
(§3) Repetition frequency: 80 MHz
(§4) Measuring method: Z scan method
Wavelength of light source: 800 nm
(§5) Inner diameter of cuvette: 10 mm
(§6) Light power for measurement: about 500 mW
(§7) Collection diameter: 40 μm to 50 μm
(§8) A quartz cell filled with each sample solution was placed in a light path through which a focused laser beam was passed. Then, the cell was moved along the light path for Z-scan measurement.
The sample solution was measured for its transmittance, and the thus-obtained value and the following theoretical equation (1) were used to determine a nonlinear absorption coefficient of the sample. T=[ln(1+I0L0β)]/I0L0β (1) where T denotes a transmittance (%), I0 denotes an excited light density [GW/cm^2], L0 denotes a sample cell length [cm], and β denotes a nonlinear absorption coefficient [cm/GW].
The thus-determined nonlinear absorption coefficient and the following equation (2) were used to calculate a two-photon absorption cross-sectional area σ. Note that the unit of σ is GM (1 GM=1×10^−50 cm^4·s·photon^−1). σ=1,000×hvβ/[…] (2)
(§9) where h denotes the Planck's constant [J·s], v denotes a frequency of an incident laser beam [s^−1], NA denotes the Avogadoro's number, and C denotes a concentration of a solution [mol/L].
Consider `CC1=C(C)c2nc1c(-c1ccc(C#N)cc1)c1[nH]c(c(C)c1C)c(-c1ccc(/C=C/c3ccc(N(c4ccccc4)c4ccc(C)cc4)cc3)cc1)c1nc(c(-c3ccc(C#N)cc3)c3[nH]c(c(C)c3C)c2-c2ccc(/C=C/c3ccc(N(c4ccccc4)c4ccc(C)cc4)cc3)cc2)C(C)=C1C` [compound 5], for which the “Two-photon absorption cross-sectional area” value was 1,480 GM.
On the same count and under the same terms, the figure for `CCCCCCc1ccc(N(c2ccc(-c3c4nc(c(-c5c(C)cc(C)cc5C)c5[nH]c(cc6nc(c(-c7c(C)cc(C)cc7C)c7[nH]c3c(CC)c7C)C(C)=C6CC)c(CC)c5C)C(C)=C4CC)cc2)c2ccc(-c3c4nc(c(-c5c(C)cc(C)cc5C)c5[nH]c(cc6nc(c(-c7c(C)cc(C)cc7C)c7[nH]c3c(CC)c7C)C(C)=C6CC)c(CC)c5C)C(C)=C4CC)cc2)cc1` [compound 25] is 1,020 GM; for `COc1ccc(-c2cc(C3=C(c4cc(-c5ccc(OC)cc5)sc4OC)C(F)(F)C(F)(F)C3(F)F)c(OC)s2)cc1` [compound 30, reference compound] it is 15 GM; for `CCC1=C(CC)C2=C(Br)c3c(CC)c(CC)c4[n]3[Zn][n]3c(c(CC)c(CC)c3=C(c3ccc5c(c3)C(C)(C)c3cc(C6=C7N=C(C(CC)=C7CC)C(c7ccc([N+](=O)[O-])cc7)=c7c(CC)c(CC)c8[n]7[Zn][n]7c(c(CC)c(CC)c76)C(c6ccc([N+](=O)[O-])cc6)=C6N=C(C(CC)=C6CC)C=8Br)ccc3-5)C3=NC(=C4c4ccc([N+](=O)[O-])cc4)C(CC)=C3CC)=C(c3ccc([N+](=O)[O-])cc3)C1=N2` [compound 28] it is 590 GM.
Still for that read-out and setting: the figure for `CCC1=C(CC)c2nc1c(Br)c1[nH]c(c(CC)c1CC)c(-c1ccc([N+](=O)[O-])cc1)c1nc(c(-c3ccc4c(c3)C(C)(C)c3cc(-c5c6nc(c(-c7ccc([N+](=O)[O-])cc7)c7[nH]c(c(Br)c8nc(c(-c9ccc([N+](=O)[O-])cc9)c9[nH]c5c(CC)c9CC)C(CC)=C8CC)c(CC)c7CC)C(CC)=C6CC)ccc3-4)c3[nH]c(c(CC)c3CC)c2-c2ccc([N+](=O)[O-])cc2)C(CC)=C1CC` [compound 27] is 870 GM; for `Cc1ccc(N(c2ccc(C)cc2)c2ccc(/C=C/c3ccc(C4=c5ccc6[n]5[Ni][n]5c(ccc5C(c5cccc(C7OCC(C)(C)CO7)c5)=C5C=CC4=N5)C(Cl)=C4C=CC(=N4)C=6c4cccc(C5OCC(C)(C)CO5)c4)cc3)cc2)cc1` [compound 6] it is 730 GM.

Another data set in a line: Two-photon absorption cross-sectional area, Z scan method, Examples B. It counts as physicochemical. As to conditions: tetrahydrofuran solution, femtosecond laser, 780 nm to 960 nm (710 nm to 990 nm). As to the method: Each of Compounds (1), (2), (57), (58), (59), (60), (3), (4), (61), (62), (25), (26), (63), (64), (65), (66), (45), (67), (68), (69), (70), (71), (72), (5), (9), (13), (19), (27), (31), (32), (34), (36), (39), (44), (53) and (55) was dissolved in tetrahydrofuran, and the resultant tetrahydrofuran solution was measured for its two-photon absorption cross-sectional area according to the below-described evaluation method therefor.
This measurement was performed under the following conditions:
Sample concentration: 10^−2 mol to 10^−5 mol (this range covering optimal concentrations of the samples (at which measurements are easily performed));
Light path length of cell: 10 mm (corresponding to the inner diameter of cuvette);
Light: variable femtosecond laser having a wavelength of 710 nm to 990 nm; and
Light power: 10 mW to 800 mW.
The following compound (73) was dissolved in tetrahydrofuran, and the resultant solution was measured for its two-photon absorption cross-sectional area according to the below-described evaluation method therefor.
The following compound (74) was dissolved in tetrahydrofuran, and the resultant solution was measured for its two-photon absorption cross-sectional area according to the below-described evaluation method therefor.
[drawing 68] [Method for Measuring Two-Photon Absorption Cross-Sectional Area]
as §1, §2, §3, §4, §5, §6, §7, §8
The sample solution was measured for its transmittance, and the thus-obtained value and the following theoretical equation (I) were used to determine a nonlinear absorption coefficient of the sample. T=[ln(1+I0L0β)]/I0L0β (I)
where T denotes a transmittance (%), I0 denotes an excited light density [GW/cm^2], L0 denotes a sample cell length [cm], and β denotes a nonlinear absorption coefficient [cm/GW].
The thus-determined nonlinear absorption coefficient and the following equation (ii) were used to calculate a two-photon absorption cross-sectional area σ. Note that the unit of σ is GM (1 GM=1×10^−50 cm^4·s·photon^−1). σ=1,000×hvβ/[…] (ii)
as §9
With `CCCCCCc1ccc(N(c2ccc(C3=C4N=C(C(C)=C4CC)C(c4c(C)cc(C)cc4C)=c4c(C)c(CC)c5[n]4[Cu][n]4c(c(C)c(CC)c43)C(c3c(C)cc(C)cc3C)=C3N=C(C=5)C(CC)=C3C)cc2)c2ccc(C3=c4c(CC)c(C)c5[n]4[Cu][n]4c(c(CC)c(C)c4C(c4c(C)cc(C)cc4C)=C4N=C3C(CC)=C4C)C=C3N=C(C(C)=C3CC)C=5c3c(C)cc(C)cc3C)cc2)cc1` [(66)], the “Two-photon absorption cross-sectional area” value worked out at 820 GM.
Turning to `CCC1=C(C)C2=NC1=Cc1c(CC)c(C)c3[n]1[Ni][n]1c(c(C)c(CC)c1=C(c1ccc(N(c4ccccc4)c4ccc(C5=C6N=C(C(C)=C6CC)C(c6ccncc6)=c6c(C)c(CC)c7[n]6[Ni][n]6c(c(C)c(CC)c65)C(c5ccncc5)=C5N=C(C(CC)=C5C)C=7/C=C/c5ccc(N(c6ccccc6)c6ccccc6)cc5)cc4)cc1)C1=NC(=C3c3ccncc3)C(C)=C1CC)=C2c1ccncc1` [(32)], the “Two-photon absorption cross-sectional area” value is listed as 900 GM.
As to `CN(C)c1ccc(/C=C/C2=c3ccc4[n]3[Zn][n]3c(ccc3C(c3ccccn3)=C3C=CC2=N3)C(c2ccc(/C=C/c3ccc(N(c5ccccc5)c5ccccc5)cc3)cc2)=C2C=CC(=N2)C=4c2ccccn2)cc1` [(13)], the “Two-photon absorption cross-sectional area” value is on record as 1,030 GM.
Consider `CCC1=C(C)c2cc3[nH]c(c(CC)c3C)c(-c3ccc(N(c4ccccc4)c4ccc(-c5c6nc(cc7[nH]c(cc8nc(c(-c9ccc(-c%10ccccn%10)nc9)c9[nH]c5c(CC)c9C)C(C)=C8CC)c(CC)c7C)C(C)=C6CC)cc4)cc3)c3nc(c(-c4ccc(-c5ccccn5)nc4)c4[nH]c(cc1n2)c(CC)c4C)C(C)=C3CC` [(55)], for which the “Two-photon absorption cross-sectional area” value was determined as 850 GM.
For `CC1=C(C)c2nc1c(-c1ccc(C#N)cc1)c1[nH]c(c(C)c1C)c(-c1ccc(/C=C/c3ccc(N(c4ccccc4)c4ccc(C)cc4)cc3)cc1)c1nc(c(-c3ccc(C#N)cc3)c3[nH]c(c(C)c3C)c2-c2ccc(/C=C/c3ccc(N(c4ccccc4)c4ccc(C)cc4)cc3)cc2)C(C)=C1C` [(5)], the “Two-photon absorption cross-sectional area” value came out at 980 GM.
For the compound `CCCCC(CC)COc1ccc(N(c2ccc(C3=C4N=C(C(C)=C4CC)C(c4ccccc4C(=O)OC)=c4c(C)c(CC)c5[n]4[Zn][n]4c(c(C)c(CC)c43)C(c3ccccc3C(=O)OC)=C3N=C(C=5)C(CC)=C3C)cc2)c2ccc(C3=c4c(CC)c(C)c5[n]4[Zn][n]4c(c(CC)c(C)c4C(c4ccccc4C(=O)OC)=C4N=C3C(CC)=C4C)C=C3N=C(C(C)=C3CC)C=5c3ccccc3C(=O)OC)cc2)cc1` (stereo not shown) [(34)], the “Two-photon absorption cross-sectional area” value is listed as 1,010 GM.
On the same count and under the same terms, the figure for `COc1ccc(-c2cc(C3=C(c4cc(-c5ccc(OC)cc5)sc4OC)C(F)(F)C(F)(F)C3(F)F)c(OC)s2)cc1` [(74), reference compound] is 15 GM.
The same measure, in the same setting: in the case of `CCCCCCc1ccc(N(c2ccc(C3=C4N=C(C(C)=C4CC)C(c4c(C)cc(C)cc4C)=c4c(C)c(CC)c5[n]4[Zn][n]4c(c(C)c(CC)c43)C(c3c(C)cc(C)cc3C)=C3N=C(C=5)C(CC)=C3C)cc2)c2ccc(C3=c4c(CC)c(C)c5[n]4[Zn][n]4c(c(CC)c(C)c4C(c4c(C)cc(C)cc4C)=C4N=C3C(CC)=C4C)C=C3N=C(C(C)=C3CC)C=5c3c(C)cc(C)cc3C)cc2)cc1` [(26)] it was 1,120 GM; in that of `CCCCCCc1ccc(N(c2ccc(C3=C4N=C(C(C)=C4CC)C(c4c(C)cc(C)cc4C)=c4c(C)c(CC)c5[n]4[Ni][n]4c(c(C)c(CC)c43)C(c3c(C)cc(C)cc3C)=C3N=C(C=5)C(CC)=C3C)cc2)c2ccc(C3=c4c(CC)c(C)c5[n]4[Ni][n]4c(c(CC)c(C)c4C(c4c(C)cc(C)cc4C)=C4N=C3C(CC)=C4C)C=C3N=C(C(C)=C3CC)C=5c3c(C)cc(C)cc3C)cc2)cc1` [(63)], 900 GM.
